In patent US20120022048A1, “Anti-proliferative substituted pyrazolo[3,4-d]pyrimidines derivatives (SPP) to inhibit immune activation, virus replication and tumor growth” (priority 2010, published 2012):

Experiments:
Assay type in all cases: cell-based
[1] = test system: primary human CD4 T-lymphocytes; assay: Cell hyperproliferation in primary T cells (CFSE staining, mitotic index); details: for mitotic index %: % of not treated control (100%), day 10, HU 100 μM; for mitotic index % / anti-proliferative activity (in words): SPPs 10 μM, Imatinib 10 μM; for anti-proliferative activity (in words): compared with HU 100 μM, HU+ddI or untreated control; for Anti-proliferative capacity: class symbol, Table 6
Experimental: We built up an experimental model using primary T cells to study the activity of the compounds on induced hyperproliferation of cells, which is a characteristic of both chronic viral diseases and cancer including HIV and leukemia.
(§1) Unstimulated (quiescent/resting, day 0 to 5) primary human CD4 T-lymphocytes were obtained by magnetic bead separation from healthy, normal donors. After five days in culture, cells were activated with PHA (5 μg/ml) to induce hyperproliferation then, at day 7, IL-2 (20 U/ml) was added (stimulated, day 6 to 10). All available compounds were tested at a concentration of 10 μM. […] At day 10, cells were harvested. Proliferation of T cells, cultured as described above, was studied by staining the cells with carboxyfluorescein diacetate-succinimidyl ester (CFSE) at day 0 (immediately after infection). For data analysis, the mitotic index (M) was used, calculating the sum of mitotic events at each proliferation cycle. To extract a relative number, M was normalized to the total number of cells acquired using the equation M=Σ[(Xn(T)−Xn(T)/2^n)], that gives the number of mitotic events from the experimentally obtained values of the proportion of T cells under each division peak n (Xn) and the total T cells (T). To study the effect of the compounds on apoptosis T cells were cultured as described above and at day 10 cells were stained with Annexin V and 7-AAD, in order to determine the percentage of total apoptotic events.

[2] = test system: primary human CD4 T-lymphocytes; assay: Apoptosis in primary CD4 T cells (Annexin V and 7-AAD staining); details: SPPs 10 μM; for apoptotic effect (in words): compared with HU 100 μM, HU+ddI or untreated control; for apoptosis %: total apoptotic events compared to untreated control, day 10, Imatinib 10 μM, HU 100 μM, ddI 2 μM
Experimental: as §1
We determined the capacity of the compounds to affect the percentages of apoptotic events after 10 days of treatment in primary CD4 T cells.

HIV-1 NL 4.3 [3] = assay: HIV-1 replication in quiescent CD4 T cells (p24 Ag ELISA); details: for anti-HIV activity in quiescent cells (in words) / HIV quiescent cells (percentage p24 compared to the untreated control): SPPs 10 μM; for anti-HIV activity in quiescent cells (in words): compared with HU 100 μM, HU+ddI or untreated control; for Antiviral activity in quiescent cells: class symbol, Table 6; for HIV quiescent cells (percentage p24 compared to the untreated control): quiescent CD4 T cells, day 10, HU 100 μM, HU 100 μM+ddI 2 μM
Experimental: Unstimulated (quiescent/resting, day 0 to 5) human CD4 T-lymphocytes, obtained by magnetic bead separation from healthy, normal donors, were infected with HIV-1 NL 4.3. After five days in culture, cells were stimulated with PHA (5 μg/ml) to induce proliferation, and then, at day 7, IL-2 (20 U/ml) was added (stimulated, day 6 to 10). All available compounds were tested at a concentration of 10 μM. HU 100 μM and HU 100 μM+ddI 2 μM were also employed as comparators and the negative control was left untreated. At day 10, cells and supernatants were harvested and HIV-1 p24 Ag was measured by ELISA. HIV replication was expressed as percentage p24 compared to the untreated control.

HIV-1 NL 4.3 [4] = assay: HIV-1 replication in activated T cells (PBMC, p24 Ag ELISA); details: for HIV activated cells (% p24 compared to not treated control): activated T cells, 7 days, SPPs and Imatinib 10 μM, HU 100 μM, ddI 2 μM; for Antiviral activity in activated cells: class symbol, Table 6; for anti-HIV activity in activated T cells (in words): SPPs 10 μM, compared with HU 100 μM, HU+ddI or untreated control
Experimental: The experimental setup described below allows us to detect direct antiviral activity of a compound.
Human PBMC, obtained from healthy, normal donors, were stimulated for two days with PHA 5 μg/ml. Then cells were infected with HIV-1 NL 4.3, IL-2 was added (20 U/ml), cells were plated (10^5 cells per well in 200 μl) and drug treatment started. […] The control was left untreated. After 7 days of incubation at 37° C. supernatants were harvested and HIV-1 p24 Ag was measured by ELISA.

Structure (SMILES)	mitotic index % [1] [%]	anti-proliferative activity (in words) [1]	Anti-proliferative capacity [1]	apoptotic effect (in words) [2]	apoptosis % [2] [%]	anti-HIV activity in quiescent cells (in words) (HIV-1 NL 4.3 [3])	Antiviral activity in quiescent cells (HIV-1 NL 4.3 [3])	HIV quiescent cells (percentage p24 compared to the untreated control) (HIV-1 NL 4.3 [3]) [%]	HIV activated cells (% p24 compared to not treated control) (HIV-1 NL 4.3 [4]) [%]	Antiviral activity in activated cells (HIV-1 NL 4.3 [4])	anti-HIV activity in activated T cells (in words) (HIV-1 NL 4.3 [4])	inhibition at 10 µM ([1]; Homo sapiens, T-lymphocyte, read-out: decrease/inhibition of cell proliferation compared to not treated control) [%]
CCSc1nc(NCCc2ccccc2)c2cnn(CC(Cl)c3ccccc3)c2n1 (centres unmarked) [VS1-026]	24.9 ± 16.6	equal to or a little less anti-proliferative than HU	+++ (excellent (+++, greater than 70% activity))	not proapoptotic	135.3 ± 15.7	slightly less potent against HIV	++ (good (++, 50 to 70% activity))	29.3 ± 6.9	19.6 ± 12.6	+++ (excellent (+++, greater than 70% activity))	–	–
CSc1nc(NCc2ccccc2)c2cnn(C=Cc3ccccc3)c2n1 [VS1-019]	81.3 ± 18.9	poor activity	–	–	94.0 ± 11.2	–	–	46.7 ± 31.3	89.3 ± 25.5	–	poor activity	–
CCCNc1nc(N(C)C)nc2c1cnn2CC(Cl)c1ccccc1 (centres unmarked) [VS1-023]	33.2 ± 6.5	–	–	not proapoptotic	116.0 ± 14.7	–	–	8.7 ± 5.6	36.6 ± 15.1	–	–	–
CCCCNc1ncnc2c1cnn2CC(Cl)c1ccccc1 (centres unmarked) [VS1-008]	8.1 ± 1.8	good activity against proliferation (even better than HU though 10 times less concentrated)	+++ (excellent (+++, greater than 70% activity))	did not induce apoptosis	115.8 ± 39.4	good activity	+++ (excellent (+++, greater than 70% activity))	11.2 ± 7.7	11.8 ± 5.6	+++ (excellent (+++, greater than 70% activity))	good activity	–
BrC(Cn1ncc2c(N3CCCCCC3)ncnc21)c1ccccc1 (centres unmarked) [VS1-018]	42.4 ± 21.8	poor activity	–	proapoptotic	176.0 ± 22.5	–	–	11.5 ± 3.2	93.6 ± 28.3	–	poor activity	–
CCCCNc1nc(SC)nc2c1cnn2CC(Cl)c1ccccc1 (centres unmarked) [VS1-024]	45.5 ± 10.9	equal to or a little less anti-proliferative than HU	++ (good (++, 50 to 70% activity))	not proapoptotic	126.7 ± 23.9	slightly less potent against HIV	+++ (excellent (+++, greater than 70% activity))	24.3 ± 9.4	10.1 ± 7.4	+++ (excellent (+++, greater than 70% activity))	–	–
CSc1nc(Nc2cccc(Cl)c2)c2cnn(C=Cc3ccccc3)c2n1 [VS1-016]	71.2 ± 5.8	–	–	–	88.0 ± 12.7	–	–	23.6 ± 22.1	21.0 ± 6.3	–	better anti-HIV activity than HU	–
CSc1nc(N2CCOCC2)c2cnn(CC(Cl)c3ccccc3)c2n1 (centres unmarked) [VS1-030]	15.5 ± 4.8	greater than 100 μM HU and 10 μM Imatinib	–	proapoptotic	174.4 ± 16.4	–	–	17.4 ± 10.8	34.5 ± 13.4	–	–	–
CCSc1nc(Nc2cccc(Cl)c2)c2cnn(CC(Cl)c3ccccc3)c2n1 (centres unmarked) [VS1-027]	2.4 ± 1.5	good anti-proliferative capacity (superior to 100 μM HU)	+++ (excellent (+++, greater than 70% activity))	no more apoptotic than HU	90.1 ± 33.8	good anti-HIV activity	+++ (excellent (+++, greater than 70% activity))	2.7 ± 1.6	12.0 ± 9.5	+++ (excellent (+++, greater than 70% activity))	good anti-HIV activity	–
CCCNc1nc(SC)nc2c1cnn2CC(Cl)c1ccccc1 (centres unmarked) [VS1-031]	23.9 ± 18.4	greater or equal to that of 100 μM HU	+++ (excellent (+++, greater than 70% activity))	did not induce apoptosis	114.4 ± 39.9	effective against HIV	+++ (excellent (+++, greater than 70% activity))	19.1 ± 1.8	31.6 ± 21.7	++ (good (++, 50 to 70% activity))	effective against HIV	–
CSc1nc(NCc2ccc(F)cc2)c2cnn(CC(Cl)c3ccccc3)c2n1 (centres unmarked) [VS1-017]	34.5 ± 6.7	poor activity	–	–	130.0 ± 19.3	–	–	38.7 ± 44.5	63.4 ± 31.2	–	poor activity	–
CSc1nc(NCc2ccc(Cl)cc2)c2cnn(CC(Cl)c3ccccc3)c2n1 (centres unmarked) [VS1-035]	33.8 ± 11.0	good anti-proliferative activity, similar to HU	–	proapoptotic activity	161.0 ± 13.2	–	–	24.0 ± 20.0	49.5 ± 8.1	–	–	–
CCCCNc1ncnc2c1cnn2CC(Br)c1ccccc1 (centres unmarked) [VS1-006]	54.0	not effective	–	–	–	–	–	17.8 ± 2.5	100.5 ± 26.4	–	not effective	–
Cc1ccc(NC(=O)c2ccc(CN3CCN(C)CC3)cc2)cc1Nc1nccc(-c2cccnc2)n1 [Imatinib, reference compound]	–	–	–	no significant increases	–	–	–	–	–	–	comparable antiviral capacity	62
BrC(Cn1ncc2c(NC3CCCCC3)ncnc21)c1ccccc1 (centres unmarked) [VS1-007]	87.0	poor performance	–	–	–	–	–	75.7 ± 18.8	70.6 ± 24.3	–	no effect on HIV replication	–
